Test results: PubChem BioAssay AID2060492 (Molecular Pharmacology Branch, DTP, NCI, 2025)

Tested on: 695427-040-R-J1-PDC complex spheroids, viability percent T/C
Assay: Anticancer human tumor 695427-040-R-J1-PDC patient-derived colon adenocarcinoma cell line growth inhibition [GQUAD]
Settings: for IC50: curve of first compound; for viability, T/C: stronger effect = lower value
Text: DNA G-quadruplex Stabilizer Agents in Combinations in Complex Spheroids
A high-throughput screen of multi-cell type tumor spheroids was designed to identify active combinations of DNA G-quadruplex stabilizer agents and targeted small molecules. Complex spheroids include a stromal component modeled by human endothelial cells (HUVEC) and fibroblasts modeled by human mesenchymal stem cells (MSCs). The concentration ranges selected for each drug and investigational agent were based upon clinically achievable concentrations if the clinical Cmax of the agent was known.
Compounds. The drugs and investigational agents: pidnarulex (CX-5461; NSC782164), APTO-253 (NSC789042), BRACO-19 (NSC847499), peposertib (NSC802822), ceralasertib (NSC780249), elimusertib (NSC800525), camonsertib (NSC841442), AZD-1390 (NSC803789), olaparib (NSC753686), talazoparib (NSC767125), ART-558 (NSC835418), sotorasib (NSC818433), MRTX-1133 (NSC836407), SN-38 (NSC673596), topotecan (NSC609699), etoposide (NSC141540), doxorubicin (NSC123127), gemcitabine (NSC613327), 5-fluorouracil (NSC19893), paclitaxel (NSC125973), vemurafenib (NSC761431), panobinostat (NSC761190), R-306465 (JNJ-16241199; NSC773264), adavosertib (NSC754352), TP-3654 (NSC805149), carboplatin (NSC241240), KSQ-4279 (NSC840948), and staurosporine (NSC755774) were obtained from the National Cancer Institute (NCI) Developmental Therapeutics Program Chemical Repository (34). The FDA-approved anticancer drug set is available from the NCI Developmental Therapeutics Program. […] The stock solutions were prepared in dimethyl sulfoxide (DMSO, Sigma-Aldrich, St. Louis, MO, cat. D2650) at 800-fold the tested concentration and stored at -70 degrees C prior to their use. All drugs and investigational agents were tested over a range starting from a high concentration at or near the clinical Cmax and decreasing in half-log increments. If the clinical Cmax for an agent had not been determined, the highest concentration tested was 10 microM.
2.3 Cell Culture. All cells were maintained in an incubator at 37 degrees C and 5% CO2 with 95% humidity. The PDC lines were cultured according to standard operating procedures established by the NCI PDMR. All PDCs were thawed and cultured in Matrigel-coated flasks prepared with a working solution of 1X Ham's F-12 nutrient mix, without supplementation (Invitrogen, cat. 11765054), 100 U/mL penicillin-streptomycin (Invitrogen, cat. 15140122), and 2.5% Matrigel (Corning Inc., cat. 354248) for the first three passages. The 857933-349-R-J2-PDC line was cultured in 6C/Colon 1B media, which includes advanced DMEM/F-12 (Thermo Fisher Scientific, cat. 12634028), 10 mM HEPES (Thermo Fisher Scientific, cat. 15630080), 1X GlutaMAX supplement (Thermo Fisher Scientific, cat. 35050061), 0.1 mg/mL primocin (InvivoGen, cat. ant-pm-2), 10% defined fetal bovine serum, heat inactivated (HyClone Laboratories Inc., cat. SH30070.03HI), 50% L-WRN conditioned media (ATCC, cat. CRL-3276), 1.25 mM N-Acetyl-L-cysteine (Sigma-Aldrich, cat. A9165), 10 mM nicotinamide (Sigma-Aldrich, cat. N0636), 1X B-27 supplement (Thermo Fisher Scientific, cat. 17504044), 1X N-2 supplement (Thermo Fisher Scientific, cat. 17502048), 10 microM Y-27632 dihydrochloride (Tocris Bioscience, cat. 1254), and 50 ng/mL human EGF recombinant protein (Thermo Fisher Scientific, cat. PHG0311). The 485176-168-R4-J1-PDC line was cultured in Panc media, which includes all 6C/Colon 1B media components plus 100 ng/mL human FGF-10 (Thermo Fisher Scientific, cat. 100-26), 500 nM SB-431542 (Selleckchem, cat. S1067), and gastrin (Tocris, cat. 3006).
[…]
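Note: spheroids exposed to compounds for seven days before readout.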

**Q.** Which results are given for Cc1cccc(N(C)C(=O)C2C(O)CCN2c2nc(C)cc(C(F)(F)F)c2C#N)c1 (configuration not stated) + Cc1cnc(CNC(=O)c2c(=O)c3ccc(N4CCCN(C)CC4)nc3n3c2sc2ccccc23)cn1?
**A.** IC50 (second compound 0.0316 µM): > 10 µM; IC50 (second compound 0.1 µM): > 10 µM; IC50 (second compound 0.316 µM): > 10 µM; IC50 (second compound 1 µM): > 10 µM; IC50 (second compound 3.16 µM): < 0.0316 µM; IC50 (second compound 10 µM): < 0.0316 µM; viability, T/C (second compound 0.0316 µM, first compound 0.0316 µM): 110%; viability, T/C (second compound 0.0316 µM, first compound 0.1 µM): 92.5%; viability, T/C (second compound 0.0316 µM, first compound 0.316 µM): 76.6%; viability, T/C (second compound 0.0316 µM, first compound 1 µM): 78.7%; viability, T/C (second compound 0.0316 µM, first compound 3.16 µM): 87.5%; viability, T/C (second compound 0.0316 µM, first compound 10 µM): 62.9%; viability, T/C (second compound 0.1 µM, first compound 0.0316 µM): 87%; viability, T/C (second compound 0.1 µM, first compound 0.1 µM): 80%; viability, T/C (second compound 0.1 µM, first compound 0.316 µM): 102%; viability, T/C (second compound 0.1 µM, first compound 1 µM): 71%; viability, T/C (second compound 0.1 µM, first compound 3.16 µM): 87.9%; viability, T/C (second compound 0.1 µM, first compound 10 µM): 79.1%; viability, T/C (second compound 0.316 µM, first compound 0.0316 µM): 72.5%; viability, T/C (second compound 0.316 µM, first compound 0.1 µM): 78.4%; viability, T/C (second compound 0.316 µM, first compound 0.316 µM): 51.4%; viability, T/C (second compound 0.316 µM, first compound 1 µM): 74.7%; viability, T/C (second compound 0.316 µM, first compound 3.16 µM): 77.5%; viability, T/C (second compound 0.316 µM, first compound 10 µM): 69.9%; viability, T/C (second compound 1 µM, first compound 0.0316 µM): 62.1%; viability, T/C (second compound 1 µM, first compound 0.1 µM): 57.7%; viability, T/C (second compound 1 µM, first compound 0.316 µM): 57.8%; viability, T/C (second compound 1 µM, first compound 1 µM): 56.9%; viability, T/C (second compound 1 µM, first compound 3.16 µM): 83%; viability, T/C (second compound 1 µM, first compound 10 µM): 60.7%; viability, T/C (second compound 3.16 µM, first compound 0.0316 µM): 38.8%; viability, T/C (second compound 3.16 µM, first compound 0.1 µM): 47%; viability, T/C (second compound 3.16 µM, first compound 0.316 µM): 54.8%; viability, T/C (second compound 3.16 µM, first compound 1 µM): 51.2%; viability, T/C (second compound 3.16 µM, first compound 3.16 µM): 67.8%; viability, T/C (second compound 3.16 µM, first compound 10 µM): 50.9%; viability, T/C (second compound 10 µM, first compound 0.0316 µM): 32.1%; viability, T/C (second compound 10 µM, first compound 0.1 µM): 40%; viability, T/C (second compound 10 µM, first compound 0.316 µM): 46.6%; viability, T/C (second compound 10 µM, first compound 1 µM): 47.1%; viability, T/C (second compound 10 µM, first compound 3.16 µM): 59.5%; viability, T/C (second compound 10 µM, first compound 10 µM): 42.5%
